Our source for the IC50 values is patent publication US20240309018A1, “THIAZOLE-LACTAM-SPIROHETEROCYCLIC COMPOUNDS AND APPLICATIONS THEREOF” (D3 BIO (WUXI) CO., LTD, priority 2021, published 2024).

The subject of this experiment is HT29 tumor cells. Description: In vitro cell proliferation inhibition (CellTiterGlo). Particulars: Homo sapiens, HT-29. In kind it is cell-based. How it is done:
The ability of the compound to inhibit the proliferation of HT29 tumor cells was measured.
The assay compound was dissolved in 100% DMSO to prepare 10 mM stock solution.
• 1) UV light of a biological safety cabin was turned on, and 30 minutes were counted down; • 2) In a 37° C. water bath, RPMI1640 medium and trypsin were preheated; • 3) After completion of the UV irradiation, the biological safety cabin was opened. The preheated medium, trypsin and phosphate buffered saline (PBS), etc. were wiped with alcohol and placed in the biological safety cabin; • 4) HT29 cells were removed from the incubator, and the old medium was removed in biological safety cabin. 10 ml of PBS was added. The mixture was shaken gently, and then PBS was removed; • 5) 1.5 ml of preheated 0.25% trypsin was added. […] The signal value was then detected. The data were analyzed using XL-Fit, and the IC50 of each compound was calculated.
Background: In ATP-based viability assays light output follows the ATP content of the culture.

What is called IC50 is the point on the concentration scale where inhibition reaches its midpoint.

The compound `Cc1cccc(CN2C(=O)c3nc(-c4nc(Nc5ccnn5C)ncc4C)sc3C23COC3)n1` [WX001] gave a 50% inhibitory concentration (IC50) of 66 nM.
